The assay has as its target Opioid receptor (Mus musculus) (UniProt P42866+P32300+P33534).
Chain of Opioid receptor (Mus musculus) (P32300 whole entry, looked up): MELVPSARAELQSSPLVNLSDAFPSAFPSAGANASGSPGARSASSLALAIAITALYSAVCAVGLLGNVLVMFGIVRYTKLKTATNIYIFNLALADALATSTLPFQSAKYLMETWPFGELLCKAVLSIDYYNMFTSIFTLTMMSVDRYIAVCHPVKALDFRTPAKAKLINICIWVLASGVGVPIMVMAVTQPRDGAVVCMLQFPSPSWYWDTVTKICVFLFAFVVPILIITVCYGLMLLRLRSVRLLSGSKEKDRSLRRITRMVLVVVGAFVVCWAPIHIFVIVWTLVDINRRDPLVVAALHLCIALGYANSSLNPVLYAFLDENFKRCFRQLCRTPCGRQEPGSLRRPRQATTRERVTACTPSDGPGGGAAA
Chain of Opioid receptor (Mus musculus) (P33534 whole entry, looked up): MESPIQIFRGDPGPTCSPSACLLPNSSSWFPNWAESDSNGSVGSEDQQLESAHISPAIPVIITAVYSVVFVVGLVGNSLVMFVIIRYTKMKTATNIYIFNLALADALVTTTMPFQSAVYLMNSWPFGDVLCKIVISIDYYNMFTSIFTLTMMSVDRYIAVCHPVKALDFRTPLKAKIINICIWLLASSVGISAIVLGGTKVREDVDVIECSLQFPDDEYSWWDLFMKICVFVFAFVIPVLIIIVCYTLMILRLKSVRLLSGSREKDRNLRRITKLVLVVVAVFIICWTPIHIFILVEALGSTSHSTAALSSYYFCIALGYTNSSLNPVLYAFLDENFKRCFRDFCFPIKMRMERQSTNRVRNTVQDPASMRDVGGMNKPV
Chain of Opioid receptor (Mus musculus) (P42866 whole entry, looked up): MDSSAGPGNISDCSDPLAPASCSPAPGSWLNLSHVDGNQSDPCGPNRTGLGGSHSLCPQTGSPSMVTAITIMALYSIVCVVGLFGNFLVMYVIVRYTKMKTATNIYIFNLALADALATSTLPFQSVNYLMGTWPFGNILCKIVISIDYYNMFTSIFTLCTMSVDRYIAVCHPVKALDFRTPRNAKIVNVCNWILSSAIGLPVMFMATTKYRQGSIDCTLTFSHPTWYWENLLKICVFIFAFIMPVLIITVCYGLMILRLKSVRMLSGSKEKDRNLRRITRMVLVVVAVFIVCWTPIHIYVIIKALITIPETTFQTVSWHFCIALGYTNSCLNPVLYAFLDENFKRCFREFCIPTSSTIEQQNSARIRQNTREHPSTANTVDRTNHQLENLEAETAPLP
Description: Analgesic Potency was tested against mice
`CC[C@H]1C(C)CC[C@]23CCN(CC4CCC4)[C@H](Cc4ccc(OC)cc42)C13` (some centres undefined) had a Log AP of 5.04. With `CC[C@H]1CCC[C@]23CCN(C)[C@H](Cc4ccc(OC)cc42)C13` (some centres undefined) the figure was 5.93; with `COc1ccc2c3c1O[C@H]1CC(C)CC4[C@@H](C2)N(C)CC[C@@]341` (some centres undefined), 5.71; with `C[C@H]1CCC[C@]23CCN(C)[C@H](Cc4ccc(O)cc42)[C@H]13`, 5.12. The result for `COc1ccc2c(c1)[C@@]13CCCC[C@H]1[C@@H](C2)N(C)CC3` reads 5.84; that for `Oc1ccc2c(c1)[C@@]13CCCC[C@H]1[C@@H](C2)N(CC1CC1)CC3`, 5.16; that for `C[C@H]1CC[C@@H]2Oc3c(O)ccc4c3[C@@]23CCN(CC2CCC2)[C@H](C4)C13` (some centres undefined), 6.41. Take `CC[C@H]1CCC[C@]23CCN(CC4CC4)[C@H](Cc4ccc(OC)cc42)C13` (some centres undefined): the Log AP is 5.91.

Molecule `CC[C@H]1CCC[C@]23CCN(CC4CCC4)[C@H](Cc4ccc(OC)cc42)C13` (some centres undefined) came in with a Log AP of 5.47. The result for `C[C@H]1CCC[C@]23CCN(CC4CCC4)[C@H](Cc4ccc(O)cc42)C13` (stereo in doubt; 46) reads 6.41; that for `COc1ccc2c(c1)[C@@]13CCC(C)CC1[C@@H](C2)N(CC1CC1)CC3` (some centres undefined), 5.97. With `COc1ccc2c3c1O[C@H]1CCCC4[C@@H](C2)N(C)CC[C@@]341` (some centres undefined) the figure was 5.54; with `COc1ccc2c(c1)[C@@]13CCC(C)[C@H](C)C1[C@@H](C2)N(C)CC3` (some centres undefined), 5.95; with `COc1ccc2c(c1)[C@@]13CCCCC1[C@@H](C2)N(CC1CCC1)CC3` (some centres undefined), 6.09. `C[C@H]1CCC[C@]23CCN(CC4CCC4)[C@H](Cc4ccc(O)cc42)C13` (stereo in doubt; 41) showed a Log AP of 6.6. With `C[C@H]1CCC[C@]23CCN(CC4CC4)[C@H](Cc4ccc(O)cc42)C13` (some centres undefined) the figure was 4.81; with `CC1CC[C@]23CCN(CC4CC4)[C@H](Cc4ccc(O)cc42)C3C1` (some centres undefined), 5.24; with `CC1CC[C@]23CCN(C)[C@H](Cc4ccc(O)cc42)C3C1` (some centres undefined), 5.56. With `CC[C@H]1C(C)CC[C@]23CCN(C)[C@H](Cc4ccc(OC)cc42)C13` (some centres undefined) the figure was 5.69; with `Oc1ccc2c3c1O[C@H]1CCCC4[C@@H](C2)N(CC2CC2)CC[C@@]341` (some centres undefined), 5.37. The result for `CC1CC[C@]23CCN(CC4CCC4)[C@H](Cc4ccc(O)cc42)C3C1` (some centres undefined) reads 6.71; that for `CC[C@H]1CC[C@@H]2Oc3c(OC)ccc4c3[C@@]23CCN(CC2CC2)[C@H](C4)C13` (some centres undefined), 5.18; that for `C[C@H]1CC(=O)C[C@]23CCN(C)[C@H](Cc4ccc(O)cc42)[C@@H]13`, 6.32. `COc1ccc2c3c1OC1CC[C@H](C)C4[C@@H](C2)N(CC2CCC2)CC[C@]314` (some centres undefined): the Log AP is 5.26. On to `CCC[C@H]1CCC[C@]23CCN(C)[C@H](Cc4ccc(OC)cc42)C13` (some centres undefined), for which the Log AP was 4.9. Molecule `C[C@H]1CCC2Oc3c(O)ccc4c3[C@@]23CCN(C)[C@H](C4)C13` (some centres undefined) displayed a Log AP of 6.03. The result for `COc1ccc2c3c1O[C@H]1CCCC4[C@@H](C2)N(CC2CC2)CC[C@@]341` (some centres undefined) reads 6.2; that for `C=C1C[C@H](C)[C@H]2[C@H]3Cc4ccc(O)cc4[C@@]2(CCN3CC2CCC2)C1`, 6.07; that for `CCC[C@H]1CCC[C@]23CCN(CC4CC4)[C@H](Cc4ccc(OC)cc42)C13` (some centres undefined), 4.76.

With `COc1ccc2c(c1)[C@@]13CCCCC1[C@@H](C2)N(CC1CC1)CC3` (some centres undefined), the Log AP was 6.87. With `COc1ccc2c(c1)[C@@]13CCC(C)[C@H](C)C1[C@@H](C2)N(CC1CCC1)CC3` (some centres undefined) the figure was 5.25; with `COc1ccc2c(c1)[C@@]13CCC[C@H](C)C1[C@@H](C2)N(CC1CCC1)CC3` (some centres undefined), 5.99; with `COc1ccc2c3c1OC1CC[C@H](C)C4[C@@H](C2)N(CC2CC2)CC[C@]314` (some centres undefined), 5.16.

The molecule `CN1CC[C@]23c4c5ccc(O)c4O[C@H]2CCCC3[C@H]1C5` (some centres undefined) registered a Log AP of 5.95. Turning to `COc1ccc2c(c1)[C@@]13CCC[C@H](C)C1[C@@H](C2)N(C)CC3` (some centres undefined), the Log AP was 5.87. On to `C[C@H]1CCC[C@]23CCN(C)[C@H](Cc4ccc(O)cc42)C13` (some centres undefined), for which the Log AP turned out to be 5.32. The result for `Oc1ccc2c3c1O[C@H]1CCCC4[C@@H](C2)N(CC2CCC2)CC[C@@]341` (some centres undefined) reads 6.49; that for `O=C1CC[C@@H]2[C@H]3Cc4ccc(O)cc4[C@@]2(CCN3CC2CCC2)C1`, 5.92; that for `CC1CC[C@]23CCN(CC4CCC4)[C@H](Cc4ccc(O)cc42)C3[C@H]1C` (stereo in doubt; 20), 6.95.

With `CC[C@H]1CCC2Oc3c(OC)ccc4c3[C@@]23CCN(C)[C@H](C4)C13` (some centres undefined), the Log AP is 5.72. Molecule `COc1ccc2c(c1)[C@@]13CCC(C)CC1[C@@H](C2)N(CC1CCC1)CC3` (some centres undefined) displayed a Log AP of 5.16. The molecule `COc1ccc2c(c1)[C@]13CCN(C)[C@H](C2)[C@@H]1C=CC(=O)C3` displayed a Log AP of 6.45. Take `CC1CC[C@]23CCN(CC4CCC4)[C@H](Cc4ccc(O)cc42)C3[C@H]1C` (stereo in doubt; 40): the Log AP was 6.23. With `CN1CC[C@]23CCCCC2C1Cc1ccc(O)cc13` (some centres undefined) the figure was 5.99. On to `COc1ccc2c3c1O[C@H]1CCCC4[C@@H](C2)N(CC2CCC2)CC[C@@]341` (some centres undefined), for which the Log AP was 5.58. Molecule `COc1ccc2c(c1)[C@@]13CCC(C)[C@H](C)C1[C@@H](C2)N(CC1CC1)CC3` (some centres undefined) yielded a Log AP of 6.15. The result for `COc1ccc2c3c1OC1CC[C@H](C)C4[C@@H](C2)N(C)CC[C@]314` (some centres undefined) reads 5.45. Consider `COc1ccc2c(c1)[C@]13CCN(C)[C@H](C2)[C@@H]1C=C(C)C(=O)C3`, for which the Log AP came to 5.67.

Molecule `CC[C@H]1C(C)CC[C@]23CCN(CC4CCC4)[C@H](Cc4ccc(O)cc42)C13` (some centres undefined) returned a Log AP of 5.82.

As for `COc1ccc2c(c1)[C@@]13CCC[C@H](C)C1[C@@H](C2)N(CC1CC1)CC3` (some centres undefined), the Log AP is 6.59.

`COc1ccc2c(c1)[C@]13CCN(CC4CCC4)[C@H](C2)[C@H]1CC(C)C(=O)C3` (some centres undefined) registered a Log AP of 4.68.

For `CCC[C@H]1CC[C@@H]2Oc3c(OC)ccc4c3[C@@]23CCN(C)[C@H](C4)C13` (some centres undefined), the Log AP was found to be 4.87. The result for `Oc1ccc2c(c1)[C@@]13CCCC[C@H]1[C@@H](C2)N(CC1CCC1)CC3` reads 6.45; that for `C[C@H]1CC(=O)C[C@]23CCN(CC4CCC4)[C@H](Cc4ccc(O)cc42)[C@@H]13`, 5.75.
